Reference: patent US20070020684A1, “Structure of a glucocorticoid receptor ligand binding domain comprising an expanded binding pocket and methods employing same” (priority 2002, published 2007)

How the values were obtained:
PR = target: T1, PR (Homo sapiens, UniProt P06401); details: known, potent, non-steroidal agonist; cited from earlier work
T1 sequence (P06401 1-933): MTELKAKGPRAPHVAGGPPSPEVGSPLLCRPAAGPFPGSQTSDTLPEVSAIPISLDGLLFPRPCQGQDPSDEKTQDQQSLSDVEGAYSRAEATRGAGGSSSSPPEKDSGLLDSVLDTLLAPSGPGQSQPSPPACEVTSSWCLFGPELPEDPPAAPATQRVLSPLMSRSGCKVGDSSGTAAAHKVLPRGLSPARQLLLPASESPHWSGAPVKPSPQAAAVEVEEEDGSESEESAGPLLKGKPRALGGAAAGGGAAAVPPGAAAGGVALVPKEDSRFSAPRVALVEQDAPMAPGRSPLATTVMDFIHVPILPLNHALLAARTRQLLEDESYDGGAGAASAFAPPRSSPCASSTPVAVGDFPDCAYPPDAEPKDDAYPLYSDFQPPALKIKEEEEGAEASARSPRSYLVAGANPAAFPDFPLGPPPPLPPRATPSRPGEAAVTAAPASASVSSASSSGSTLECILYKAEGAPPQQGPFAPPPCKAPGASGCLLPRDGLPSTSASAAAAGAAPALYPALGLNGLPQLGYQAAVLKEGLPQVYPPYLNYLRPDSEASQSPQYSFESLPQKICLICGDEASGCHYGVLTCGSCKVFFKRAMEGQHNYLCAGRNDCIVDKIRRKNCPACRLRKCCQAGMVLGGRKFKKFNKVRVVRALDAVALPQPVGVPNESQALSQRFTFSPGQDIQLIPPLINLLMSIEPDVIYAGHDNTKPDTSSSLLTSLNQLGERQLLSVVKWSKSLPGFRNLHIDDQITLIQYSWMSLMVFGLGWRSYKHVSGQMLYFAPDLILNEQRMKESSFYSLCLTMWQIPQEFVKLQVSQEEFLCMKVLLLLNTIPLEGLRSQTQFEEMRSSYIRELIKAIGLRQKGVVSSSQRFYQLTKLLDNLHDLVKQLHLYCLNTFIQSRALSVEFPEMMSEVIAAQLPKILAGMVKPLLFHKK

[1] = target: T2, GR LBD (521-777) F602S polypeptide (human glucocorticoid receptor alpha ligand binding domain) (human, UniProt P04150 521-777); test: X-ray co-crystal structure, 2.6 Å
T2 construct: Expressed in E. coli from plasmid 6xHisGS-TGR(521-777) F602S pET24; The fusion tag was cut off with thrombin before complex formation and crystallization; Residue numbers in the text follow full-length human GR; In the crystal, two LBD monomers form a symmetric dimer; also called GRα LBD; GR LBD F602S
T2 sequence: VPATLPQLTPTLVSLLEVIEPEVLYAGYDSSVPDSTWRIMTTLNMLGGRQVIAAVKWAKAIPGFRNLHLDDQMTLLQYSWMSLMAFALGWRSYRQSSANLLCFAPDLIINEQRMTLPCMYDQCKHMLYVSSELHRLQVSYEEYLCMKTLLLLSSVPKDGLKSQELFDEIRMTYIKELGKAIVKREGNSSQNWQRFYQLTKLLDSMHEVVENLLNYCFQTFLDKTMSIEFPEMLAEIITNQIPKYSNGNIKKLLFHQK

## CC1CCC(c2ccc(Cl)c(C(F)(F)F)c2)=NN1S(=O)(=O)c1ccc(I)cc1 (centres unmarked) [RWJ-60130, 3-(4-chloro-3-trifluoromethylphenyl)-1-(4iodobenzensulfonyl)-6-methyl-1,4,5,6-tetrahydropyridazine]
PR
  binding affinity for PR (in words): high-affinity

B1: TIF2 peptide (residues 740-753 of the human TIF2 protein), KENALLRYLLDKDD (peptide)
peptide: KENALLRYLLDKDD
[1]
  binding result: binds
